Consider 21 compounds from patent US12630528B2, “Amino aryl derivative useful as diacylglycerol acyltransferase 2 inhibitor and use thereof” (LG CHEM, LTD., priority 2019, dated 2026).

This assay deals with T1, human DGAT2 (Homo sapiens, UniProt Q96PD7).
T1 construct: FLAG (DYKDDDDK); made in house; host or cells: Sf-21 insect cells (BacPAK baculovirus system); membrane fraction used
T1 sequence (Q96PD7 1-388): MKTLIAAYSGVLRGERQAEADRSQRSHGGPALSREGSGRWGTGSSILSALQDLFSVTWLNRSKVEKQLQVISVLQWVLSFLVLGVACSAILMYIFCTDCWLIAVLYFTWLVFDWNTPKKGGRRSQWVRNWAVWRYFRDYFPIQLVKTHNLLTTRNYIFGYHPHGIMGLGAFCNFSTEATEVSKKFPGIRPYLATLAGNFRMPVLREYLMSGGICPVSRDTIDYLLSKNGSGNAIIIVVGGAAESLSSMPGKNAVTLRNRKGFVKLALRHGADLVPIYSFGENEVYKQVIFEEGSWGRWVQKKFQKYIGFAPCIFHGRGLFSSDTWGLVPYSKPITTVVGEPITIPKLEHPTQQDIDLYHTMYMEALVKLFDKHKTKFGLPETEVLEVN
Put plainly: DGAT2 enzyme activity inhibition, Phospholipid FlashPlate SPA. Type of assay: biochemical. The following applies: recombinant human DGAT2 membrane protein from Sf-21 cells; inhibition of [14C]-TG production; 37° C. As for the experimental part: In order to prepare the pBacPAK9-DGAT2, which is DGAT2 expression vector, the human DGAT2 gene amplified by polymerase chain reaction (PCR) was cloned into the EcoR1 and Xho1 sites of the pBacPAK9 (clonctech) vector. The nucleotide sequence of the primers used in PCR was the forward primer 5′ […] (SEQ. ID. NO: 2). The composition of the reaction solution was to contain 50 ng of cDNA clone (OriGene), 200 μM of dATP, dCTP, dTTP, dGTP, 200 nM of each primer, 1 unit of Tag DNA Polymerase (Toyobo), 1×PCR buffer, and the final volume was adjusted to 20 μl. The reaction conditions were denatured at 95° C. for 5 minutes, followed by 30 times of 94° C. for 20 seconds, 60° C. for 20 seconds, and 72° C. for 90 seconds, followed by further reaction at 72° C. for 7 minutes.
Recombinant human DGAT2 protein was expressed in Sf-21 cells, which are insect cells, by using the BacPack baculovirus expression system (Clontech). The brief manufacturing process is as follows. First, the pBacPAK9-DGAT2 expression vector was transfected with BacPAK6 virus DNA (Bsu36I digest) into sf21 cells using Bacfectin to prepare a recombinant DGAT2 expressing baculovirus. The thus prepared baculovirus was infected with Sf-21 cells at 10 MOI (multiplicity of infection), and after 72 hours, infected insect cells were collected and membrane proteins were isolated. For membrane protein separation, the cell pellet was dissolved in a sucrose solution containing 250 mM sucrose, 10 mM Tris (pH 7.4), and 1 mM ethylenediamine-tetraacetic acid (EDTA), and then homogenized by using a dounce homogenizer, and the supernatant was taken by centrifuging at 600×g for 15 minutes, and centrifuged at 100,000×g for 1 hour to discard the supernatant, and the remaining pellet was resuspended in 20 mM HEPES buffer (pH 7.4). The prepared DGAT2 overexpressing membrane protein was dispensed in 100 μl and stored at −80° C. until use. Protein concentration was quantified by using the BCA Protein Assay Kit (Thermo Scientific).
In vitro DGAT2 analysis was performed using a Phospholipid Flash Plate (PerkinElmer) based on the principle of SPA (Scintilation Proximity Assay). First, DGAT2 inhibition compounds serially diluted 5 times from 3 nM to 10 μM (final concentration, 1% DMSO) were mixed in a buffer solution containing 2 μg DGAT2-membrane protein and 20 mM HEPES, 20 mM MgCl2, 1 mg/mL BSA, 50 μM 1,2 sn-oleoyl glycerol (Sigma), put in a 96-well flash plate (FlashPlate) and reacted at 37° C. for 20 minutes, and then 1 μM [14C] ole oil CoA (PerkinElmer, NEC651050UC) was added to be a final volume of 100 μL and further reacted at 37° C. for 15 minutes. After the enzymatic reaction was completed, 100 μL of isopropanol was added, the plate was sealed with a film, and the plate was shaken slowly in a plate shaker. The next day, the amplified scintillation signal (cpm) in Topcounter (Packard) was measured to measure the degree of production of [14C]-labeled triacyl glycerol (TG) as a reaction product. The measured value when the compound was not treated was used as a positive control, and the measured value of the compound treated group was calculated as a relative % to measure the inhibition effect of the compound on TG production.

With `CCOc1ccccc1O[C@@H]1CCCN(c2cncc(Nc3cccc(N4CCCC(C(=O)O)C4)n3)n2)C1` (stereo partly drawn) [Example 54, 1-(6-((6-((R)-3-(2-ethoxyphenoxy)piperidin-1-yl)pyrazin-2-yl)amino)pyridin-2-yl)piperidine-3-carboxylic Acid], the IC50 was 910 nM.
Under `CCOc1ccccc1O[C@@H]1CCCN(c2cncc(Nc3cccc(N4CCC[C@@H](C(=O)O)C4)n3)n2)C1` [Example 55, (R)-1-(6-((6-((R)-3-(2-ethoxyphenoxy)piperidin-1-yl)pyrazin-2-yl)amino)pyridin-2-yl)piperidine-3-carboxylic Acid] stands 860 nM; under `CCOc1ccccc1O[C@@H]1CCCN(c2cncc(Nc3cccc(N4CCC(C(=O)O)CC4)n3)n2)C1` [Example 56, (R)-1-(6-((6-(3-(2-ethoxyphenoxy)piperidin-1-yl)pyrazin-2-yl)amino)pyridin-2-yl)piperidine-4-carboxylic Acid], 130 nM; under `CCOc1ccccc1O[C@@H]1CCCN(c2cncc(Nc3cccc(N4CCC(CC(=O)O)CC4)n3)n2)C1` [Example 57, (R)-2-(1-(6-((6-(3-(2-ethoxyphenoxy)piperidin-1-yl)pyrazin-2-yl)amino)pyridin-2-yl)piperidin-4-yl)acetic Acid], 330 nM.
Consider `CCOc1ccccc1O[C@@H]1CCCN(c2cncc(Nc3cccc(N4CCC(C(C)(C)C(=O)O)CC4)n3)n2)C1` [Example 58, (R)-2-(1-(6-((6-(3-(2-ethoxyphenoxy)piperidin-1-yl)pyrazin-2-yl)amino)pyridin-2-yl)piperidin-4-yl)-2-methylpropanoic Acid], for which the IC50 is 310 nM.
Regarding `CCOc1ccccc1O[C@@H]1CCCN(c2cncc(Nc3cccc(N4CCC[C@H](OCC(=O)O)C4)n3)n2)C1` [Example 59], the IC50 amounted to 3700 nM.
Turning to `CCOc1ccccc1O[C@@H]1CCCN(c2cncc(Nc3cccc(-c4cccc(C(C)(C)C(=O)O)c4)n3)n2)C1` [Example 60, (R)-2-(3-(6-((6-(3-(2-ethoxyphenoxy)piperidin-1-yl)pyrazin-2-yl)amino)pyridin-2-yl)phenyl)-2-methylpropanoic Acid], the IC50 amounted to 220 nM.
Under `CCOc1ccccc1O[C@@H]1CCCN(c2cncc(Nc3cccc(-c4ccc(C(C)(C)C(=O)O)cc4)n3)n2)C1` [Example 61, (R)-2-(4-(6-((6-(3-(2-ethoxyphenoxy)piperidin-1-yl)pyrazin-2-yl)amino)pyridin-2-yl)phenyl)-2-methylpropanoic Acid] stands 91 nM.
With `CCOc1cccnc1O[C@@H]1CCCN(c2cncc(Nc3cccc(-c4ccc(C(C)(C)C(=O)O)cc4)n3)n2)C1` [Example 62, (R)-2-(4-(6-((6-(3-((3-ethoxypyridin-2-yl)oxy)piperidin-1-yl)pyrazin-2-yl)amino)pyridin-2-yl)phenyl)-2-methylpropanoic Acid], the IC50 is 170 nM.
The same measure for `CCOc1ccccc1O[C@@H]1CCCN(c2cncc(Nc3cccc(-c4cccc(CC(C)(C)C(=O)O)c4)n3)n2)C1` [Example 63, (R)-3-(3-(6-((6-(3-(2-ethoxyphenoxy)piperidin-1-yl)pyrazin-2-yl)amino)pyridin-2-yl)phenyl)-2,2-dimethylpropanoic Acid]: 71 nM.
The same measure for `CCOc1cccnc1O[C@@H]1CCCN(c2cncc(Nc3cccc(-c4cccc(CC(C)(C)C(=O)O)c4)n3)n2)C1` [Example 64, (R)-3-(3-(6-((6-(3-((3-ethoxypyridin-2-yl)oxy)piperidin-1-yl)pyrazin-2-yl)amino)pyridin-2-yl)phenyl)-2,2-dimethylpropanoic Acid]: 130 nM; for `CCOc1ccccc1O[C@@H]1CCCN(c2cccc(Nc3cccc(-c4cccc(CC(C)(C)C(=O)O)c4)n3)n2)C1` [Example 65, (R)-3-(3-(6-((6-(3-(2-ethoxyphenoxy)piperidin-1-yl)pyridin-2-yl)amino)pyridin-2-yl)phenyl)-2,2-dimethylpropanoic Acid]: 1500 nM.
With `CCOc1ccccc1O[C@@H]1CCCN(c2nccc(Nc3cccc(-c4cccc(CC(C)(C)C(=O)O)c4)n3)n2)C1` [Example 66, (R)-3-(3-(6-((2-(3-(2-ethoxyphenoxy)piperidin-1-yl)pyrimidin-4-yl)amino)pyridin-2-yl)phenyl)-2,2-dimethylpropanoic Acid], the IC50 was 3500 nM.
Regarding `CCOc1ccccc1O[C@@H]1CCCN(c2ccnc(Nc3cccc(-c4cccc(CC(C)(C)C(=O)O)c4)n3)n2)C1` [Example 67, (R)-3-(3-(6-((4-(3-(2-ethoxyphenoxy)piperidin-1-yl)pyrimidin-2-yl)amino)pyridin-2-yl)phenyl)-2,2-dimethylpropanoic Acid], the IC50 is 2400 nM.
The same measure for `CCOc1cccnc1O[C@@H]1CCCN(c2ccnc(Nc3cccc(-c4cccc(CC(C)(C)C(=O)O)c4)n3)n2)C1` [Example 68, (R)-3-(3-(6-((4-(3-((3-ethoxypyridin-2-yl)oxy)piperidin-1-yl)pyrimidin-2-yl)amino)pyridin-2-yl)phenyl)-2,2-dimethylpropanoic Acid]: 3300 nM; for `CCOc1ccccc1O[C@@H]1CCCN(c2cncc(Nc3ccn(-c4cccc(CC(C)(C)C(=O)O)c4)n3)n2)C1` [Example 69, (R)-3-(3-(3-((6-(3-(2-ethoxyphenoxy)piperidin-1-yl)pyrazin-2-yl)amino)-1H-pyrazol-1-yl)phenyl)-2,2-dimethylpropanoic Acid]: 1100 nM; for `CCOc1ccccc1O[C@@H]1CCCN(c2ncc(C(F)(F)F)c(Nc3cccc(-c4cccc(CC(C)(C)C(=O)O)c4)n3)n2)C1` [Example 70, (R)-3-(3-(6-((2-(3-(2-ethoxyphenoxy)piperidin-1-yl)-5-(trifluoromethyl)pyrimidin-4-yl)amino)pyridin-2-yl)phenyl)-2,2-dimethylpropanoic Acid]: above 10000 nM.
With `CCOc1ccccc1O[C@@H]1CCCN(c2nc(Nc3cccc(-c4cccc(CC(C)(C)C(=O)O)c4)n3)ncc2C(F)(F)F)C1` [Example 71, (R)-3-(3-(6-((4-(3-(2-ethoxyphenoxy)piperidin-1-yl)-5-(trifluoromethyl)pyrimidin-2-yl)amino)pyridin-2-yl)phenyl)-2,2-dimethylpropanoic Acid], the IC50 came out at 670 nM.
Regarding `CCOc1ccccc1O[C@@H]1CCCN(c2cncc(Nc3cccc(-c4ccc(CC(C)(C)C(=O)O)cc4)n3)n2)C1` [Example 72, (R)-3-(4-(6-((6-(3-(2-ethoxyphenoxy)piperidin-1-yl)pyrazin-2-yl)amino)pyridin-2-yl)phenyl)-2,2-dimethylpropanoic Acid], the IC50 was 140 nM.
As for `CCOc1ccccc1O[C@@H]1CCCN(c2cncc(Nc3cccc(-c4ccc(NCC(=O)O)cc4)n3)n2)C1` [Example 73, (R)-(4-(6-((6-(3-(2-ethoxyphenoxy)piperidin-1-yl)pyrazin-2-yl)amino)pyridin-2-yl)phenyl)glycine], the IC50 came to 890 nM.
On to `CCOc1cccnc1O[C@@H]1CCCN(c2cncc(Nc3cccc(-c4ccc(NCC(=O)O)cc4)n3)n2)C1` [Example 74, (R)-(4-(6-((6-(3-((3-ethoxypyridin-2-yl)oxy)piperidin-1-yl)pyrazin-2-yl)amino)pyridin-2-yl)phenyl)glycine], for which the IC50 came to 980 nM.

Usually IC50 stands for the concentration that gives 50% inhibition.
